Earlier results in patent publication US20250049951A1, “NUCLEIC ACID COMPOSITIONS AND USES THEREOF” (SURGE Therapeutics, Inc., priority 2021, published 2025).
Several values for one entry are separate records, joined by “and”; a condition that tells them apart may be missing. Identical values can stand only once.

How the values were obtained:
[1] = target: T1, TLR8 (Homo sapiens, UniProt Q9NR97); settings: TLR8-transfected HEK293 cells
T1 construct: expressed in transfected cells; host or cells: HEK293
T1 sequence (Q9NR97 27-1041): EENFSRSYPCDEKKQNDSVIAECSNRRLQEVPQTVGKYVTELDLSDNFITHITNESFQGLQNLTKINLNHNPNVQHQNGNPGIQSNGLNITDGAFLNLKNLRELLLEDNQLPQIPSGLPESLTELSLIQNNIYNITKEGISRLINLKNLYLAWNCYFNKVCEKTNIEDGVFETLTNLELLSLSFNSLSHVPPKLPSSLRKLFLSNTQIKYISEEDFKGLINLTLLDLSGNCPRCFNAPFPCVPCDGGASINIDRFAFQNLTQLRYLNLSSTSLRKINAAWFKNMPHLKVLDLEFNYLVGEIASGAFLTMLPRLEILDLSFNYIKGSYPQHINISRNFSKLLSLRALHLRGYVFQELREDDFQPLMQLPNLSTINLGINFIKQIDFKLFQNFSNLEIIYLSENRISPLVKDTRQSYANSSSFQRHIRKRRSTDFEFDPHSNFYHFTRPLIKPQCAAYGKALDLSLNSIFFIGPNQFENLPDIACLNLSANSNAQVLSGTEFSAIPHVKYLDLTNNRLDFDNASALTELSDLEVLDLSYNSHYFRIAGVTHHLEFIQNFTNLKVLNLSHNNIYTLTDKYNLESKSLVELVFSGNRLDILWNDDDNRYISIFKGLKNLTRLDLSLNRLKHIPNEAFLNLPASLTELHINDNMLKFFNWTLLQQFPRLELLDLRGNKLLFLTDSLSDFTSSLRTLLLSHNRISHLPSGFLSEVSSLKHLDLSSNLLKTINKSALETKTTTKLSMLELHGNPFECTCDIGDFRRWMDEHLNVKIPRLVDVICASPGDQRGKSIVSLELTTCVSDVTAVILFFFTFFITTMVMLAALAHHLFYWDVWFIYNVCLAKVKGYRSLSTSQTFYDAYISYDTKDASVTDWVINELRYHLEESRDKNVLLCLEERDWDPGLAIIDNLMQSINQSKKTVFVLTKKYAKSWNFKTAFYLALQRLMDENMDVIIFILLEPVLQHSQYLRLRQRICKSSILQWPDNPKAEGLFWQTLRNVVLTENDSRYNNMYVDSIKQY

[2] = target: T2, TLR7 (Homo sapiens, UniProt Q9NYK1)
T2 construct: expressed in transfected cells; host or cells: HEK293
T2 sequence (Q9NYK1 27-1049): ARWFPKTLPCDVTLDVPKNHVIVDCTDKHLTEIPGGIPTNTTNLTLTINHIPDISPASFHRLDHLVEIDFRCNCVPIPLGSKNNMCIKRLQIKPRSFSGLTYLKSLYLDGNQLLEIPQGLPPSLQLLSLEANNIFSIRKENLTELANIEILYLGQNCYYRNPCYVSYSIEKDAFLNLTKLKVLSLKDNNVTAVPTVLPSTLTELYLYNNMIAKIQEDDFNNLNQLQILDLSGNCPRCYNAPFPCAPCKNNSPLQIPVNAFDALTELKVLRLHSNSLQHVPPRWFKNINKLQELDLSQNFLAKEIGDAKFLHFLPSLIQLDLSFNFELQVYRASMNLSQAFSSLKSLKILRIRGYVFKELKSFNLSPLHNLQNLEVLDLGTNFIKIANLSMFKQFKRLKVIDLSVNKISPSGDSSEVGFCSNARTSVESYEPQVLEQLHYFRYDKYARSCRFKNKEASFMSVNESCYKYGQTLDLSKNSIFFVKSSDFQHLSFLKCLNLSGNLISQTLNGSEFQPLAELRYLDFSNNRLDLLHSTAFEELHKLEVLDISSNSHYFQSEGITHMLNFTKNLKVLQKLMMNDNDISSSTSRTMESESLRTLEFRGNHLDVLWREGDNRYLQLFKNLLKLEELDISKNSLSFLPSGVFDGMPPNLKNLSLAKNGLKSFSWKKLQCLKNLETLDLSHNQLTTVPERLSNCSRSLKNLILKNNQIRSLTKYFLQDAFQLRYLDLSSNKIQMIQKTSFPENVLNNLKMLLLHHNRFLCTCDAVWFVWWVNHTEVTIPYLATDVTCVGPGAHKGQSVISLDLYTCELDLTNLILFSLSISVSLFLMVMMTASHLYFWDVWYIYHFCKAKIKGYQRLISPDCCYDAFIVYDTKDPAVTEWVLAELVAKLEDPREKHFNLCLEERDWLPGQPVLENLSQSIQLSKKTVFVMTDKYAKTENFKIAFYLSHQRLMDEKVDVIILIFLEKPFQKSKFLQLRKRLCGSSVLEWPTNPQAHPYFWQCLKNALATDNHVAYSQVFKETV

Row | Compound | concentration inducing NF-κB activation [1] | amount required to activate NF-κB in TLR7- relative to TLR8-transfected HEK293 cells ([2]; times more than the 0.4 μM needed in TLR8 cells) | water solubility | concentration inducing NF-κB activation ([2]; TLR7-transfected HEK293 cells) | potency in inducing NF-κB activation relative to CL075 ([1]; more potent than CL075) | potency in inducing NF-κB activation relative to R848 ([1]; more potent than R848)
1 | CCCc1nc2c(N)nc3ccccc3c2s1 [CL075] | 0.4 μM and 0.1 μg/ml | ~10 times |  |  |  | 
2 | CCOCC1Nc2c(N)nc3ccccc3c2N1 (stereo not shown) [CL097] | 4 μM and 1 μg/ml |  | ≥ 20 mg/mL | 0.4 μM and 0.1 μg/ml |  | 
3 | CCOC(=O)C1=Cc2ccc(-c3cccc(C#N)c3)cc2N=C(N)C1 [TL8-506] |  |  |  |  | ~25 × | ~50 ×
